According to ChEMBL document CHEMBL5442219:

How the values were obtained:
Conditions in all cases: Compound concentration 10 µM
[1] = biological target: T1, 5-hydroxytryptamine receptor 3A (Homo sapiens) (UniProt P46098)
T1 sequence (whole entry): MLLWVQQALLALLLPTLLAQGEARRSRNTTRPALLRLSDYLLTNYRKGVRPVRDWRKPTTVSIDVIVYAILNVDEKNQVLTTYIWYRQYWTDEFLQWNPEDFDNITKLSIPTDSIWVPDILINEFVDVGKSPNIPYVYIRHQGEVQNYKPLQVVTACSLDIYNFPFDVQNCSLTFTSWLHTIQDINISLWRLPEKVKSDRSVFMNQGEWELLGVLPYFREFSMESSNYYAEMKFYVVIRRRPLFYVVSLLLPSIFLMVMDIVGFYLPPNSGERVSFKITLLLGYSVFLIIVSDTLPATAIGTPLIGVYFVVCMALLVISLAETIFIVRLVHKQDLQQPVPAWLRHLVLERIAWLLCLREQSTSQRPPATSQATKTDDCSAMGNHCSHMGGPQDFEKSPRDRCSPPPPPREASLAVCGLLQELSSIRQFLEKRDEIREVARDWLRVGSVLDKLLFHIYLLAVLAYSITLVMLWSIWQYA
Description: PDSP Primary Binding target: HTR3A - Compounds are tested at 10 uM concentration, plate are incubated at room temperature in the dark for 90 minutes. Reaction are stopped by vacuum filtration onto 0.3% polyethyleneimine soaked filter mats using Filtermate harvester. Scintilation cocktail is then melted onto microwave-dried filters on a hot plate and the radio activity is counted in Microbia counter.

[2] = biological target: Beta-2 adrenergic receptor (Homo sapiens) (UniProt P07550)
Chain of Beta-2 adrenergic receptor (Homo sapiens) (P07550 whole entry, looked up): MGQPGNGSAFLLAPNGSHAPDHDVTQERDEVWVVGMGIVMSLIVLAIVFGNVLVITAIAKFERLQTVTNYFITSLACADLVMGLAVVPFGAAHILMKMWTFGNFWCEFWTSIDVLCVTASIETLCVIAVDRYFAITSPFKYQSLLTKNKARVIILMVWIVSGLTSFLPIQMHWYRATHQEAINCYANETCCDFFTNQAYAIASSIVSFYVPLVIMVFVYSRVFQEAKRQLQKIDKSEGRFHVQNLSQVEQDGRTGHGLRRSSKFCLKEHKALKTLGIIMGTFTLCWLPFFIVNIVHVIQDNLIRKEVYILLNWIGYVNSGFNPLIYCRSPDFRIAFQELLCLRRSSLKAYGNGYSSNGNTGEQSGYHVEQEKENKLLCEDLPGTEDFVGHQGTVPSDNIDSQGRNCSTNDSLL
Description: PDSP Primary Binding target: ADRB2 - Compounds are tested at 10 uM concentration, plate are incubated at room temperature in the dark for 90 minutes. Reaction are stopped by vacuum filtration onto 0.3% polyethyleneimine soaked filter mats using Filtermate harvester. Scintilation cocktail is then melted onto microwave-dried filters on a hot plate and the radio activity is counted in Microbia counter.

[3] = biological target: 5-hydroxytryptamine receptor 2B (Homo sapiens) (UniProt P41595)
Chain of 5-hydroxytryptamine receptor 2B (Homo sapiens) (P41595 whole entry): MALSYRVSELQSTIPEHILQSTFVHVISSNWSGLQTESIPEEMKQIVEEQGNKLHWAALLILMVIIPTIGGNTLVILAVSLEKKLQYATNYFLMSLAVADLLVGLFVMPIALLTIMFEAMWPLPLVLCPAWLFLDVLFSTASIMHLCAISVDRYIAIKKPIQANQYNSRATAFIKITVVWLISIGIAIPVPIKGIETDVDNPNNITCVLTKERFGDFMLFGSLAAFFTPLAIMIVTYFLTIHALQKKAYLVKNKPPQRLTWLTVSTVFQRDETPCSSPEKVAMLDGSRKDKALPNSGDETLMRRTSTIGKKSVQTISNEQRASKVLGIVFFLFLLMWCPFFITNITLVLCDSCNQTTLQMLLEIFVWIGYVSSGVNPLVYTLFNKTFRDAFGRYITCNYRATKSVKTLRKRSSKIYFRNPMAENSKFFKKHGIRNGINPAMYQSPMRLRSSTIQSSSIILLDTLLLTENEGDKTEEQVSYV
Description: PDSP Primary Binding target: HTR2B - Compounds are tested at 10 uM concentration, plate are incubated at room temperature in the dark for 90 minutes. Reaction are stopped by vacuum filtration onto 0.3% polyethyleneimine soaked filter mats using Filtermate harvester. Scintilation cocktail is then melted onto microwave-dried filters on a hot plate and the radio activity is counted in Microbia counter.

[4] = biological target: T2, Muscarinic acetylcholine receptor M1 (Homo sapiens) (UniProt P11229)
T2 sequence (whole entry): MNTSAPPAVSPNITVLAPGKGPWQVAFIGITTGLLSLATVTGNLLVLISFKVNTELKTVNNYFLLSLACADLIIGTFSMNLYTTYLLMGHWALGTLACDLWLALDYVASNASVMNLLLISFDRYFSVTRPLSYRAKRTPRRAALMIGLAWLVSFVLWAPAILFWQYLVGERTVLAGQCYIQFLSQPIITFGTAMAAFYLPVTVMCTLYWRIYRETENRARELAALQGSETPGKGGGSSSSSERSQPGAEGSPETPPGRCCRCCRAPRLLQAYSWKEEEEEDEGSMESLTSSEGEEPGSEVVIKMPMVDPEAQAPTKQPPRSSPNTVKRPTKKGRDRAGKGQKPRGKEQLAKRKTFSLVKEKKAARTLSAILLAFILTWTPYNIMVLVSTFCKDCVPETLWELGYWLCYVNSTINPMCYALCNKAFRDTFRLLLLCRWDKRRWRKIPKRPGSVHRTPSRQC
Description: PDSP Primary Binding target: CHRM1 - Compounds are tested at 10 uM concentration, plate are incubated at room temperature in the dark for 90 minutes. Reaction are stopped by vacuum filtration onto 0.3% polyethyleneimine soaked filter mats using Filtermate harvester. Scintilation cocktail is then melted onto microwave-dried filters on a hot plate and the radio activity is counted in Microbia counter.

[5] = biological target: Beta-3 adrenergic receptor (Homo sapiens) (UniProt P13945)
Chain of Beta-3 adrenergic receptor (Homo sapiens) (P13945 whole entry, looked up): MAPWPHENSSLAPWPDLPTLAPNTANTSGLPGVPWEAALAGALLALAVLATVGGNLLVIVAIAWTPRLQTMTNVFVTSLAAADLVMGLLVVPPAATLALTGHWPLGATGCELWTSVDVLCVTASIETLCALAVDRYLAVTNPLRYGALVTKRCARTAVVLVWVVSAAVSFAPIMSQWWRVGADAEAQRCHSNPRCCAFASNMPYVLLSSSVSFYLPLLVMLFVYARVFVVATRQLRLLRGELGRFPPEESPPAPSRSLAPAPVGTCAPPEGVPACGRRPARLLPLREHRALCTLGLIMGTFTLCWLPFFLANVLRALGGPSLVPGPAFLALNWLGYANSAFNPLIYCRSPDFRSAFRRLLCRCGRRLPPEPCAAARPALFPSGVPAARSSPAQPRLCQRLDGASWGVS
Description: PDSP Primary Binding target: ADRB3 - Compounds are tested at 10 uM concentration, plate are incubated at room temperature in the dark for 90 minutes. Reaction are stopped by vacuum filtration onto 0.3% polyethyleneimine soaked filter mats using Filtermate harvester. Scintilation cocktail is then melted onto microwave-dried filters on a hot plate and the radio activity is counted in Microbia counter.

[6] = biological target: D(1A) dopamine receptor (Homo sapiens) (UniProt P21728)
Chain of D(1A) dopamine receptor (Homo sapiens) (P21728 whole entry): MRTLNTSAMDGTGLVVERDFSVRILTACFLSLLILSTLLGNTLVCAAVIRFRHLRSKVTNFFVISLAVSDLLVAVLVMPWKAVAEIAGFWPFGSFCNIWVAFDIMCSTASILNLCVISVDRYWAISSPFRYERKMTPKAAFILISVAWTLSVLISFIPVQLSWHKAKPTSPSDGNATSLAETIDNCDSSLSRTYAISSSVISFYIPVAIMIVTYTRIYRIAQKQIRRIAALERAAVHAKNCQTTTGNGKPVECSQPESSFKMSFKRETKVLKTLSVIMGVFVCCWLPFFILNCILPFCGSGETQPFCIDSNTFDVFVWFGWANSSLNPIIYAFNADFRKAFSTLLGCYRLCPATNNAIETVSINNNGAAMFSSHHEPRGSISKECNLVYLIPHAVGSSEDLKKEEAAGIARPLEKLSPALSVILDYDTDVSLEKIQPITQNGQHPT
Description: PDSP Primary Binding target: DRD1 - Compounds are tested at 10 uM concentration, plate are incubated at room temperature in the dark for 90 minutes. Reaction are stopped by vacuum filtration onto 0.3% polyethyleneimine soaked filter mats using Filtermate harvester. Scintilation cocktail is then melted onto microwave-dried filters on a hot plate and the radio activity is counted in Microbia counter.

[7] = biological target: Sigma intracellular receptor 2 (Homo sapiens) (UniProt Q5BJF2)
Chain of Sigma intracellular receptor 2 (Homo sapiens) (Q5BJF2 whole entry): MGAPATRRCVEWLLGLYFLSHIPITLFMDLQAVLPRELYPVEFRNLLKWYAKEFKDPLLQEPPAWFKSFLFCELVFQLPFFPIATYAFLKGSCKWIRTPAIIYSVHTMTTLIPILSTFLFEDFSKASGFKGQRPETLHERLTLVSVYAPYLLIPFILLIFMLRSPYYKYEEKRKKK
Description: PDSP Primary Binding target: TMEM97 - Compounds are tested at 10 uM concentration, plate are incubated at room temperature in the dark for 90 minutes. Reaction are stopped by vacuum filtration onto 0.3% polyethyleneimine soaked filter mats using Filtermate harvester. Scintilation cocktail is then melted onto microwave-dried filters on a hot plate and the radio activity is counted in Microbia counter.

[8] = biological target: Mu-type opioid receptor (Homo sapiens) (UniProt P35372)
Chain of Mu-type opioid receptor (Homo sapiens) (P35372 whole entry): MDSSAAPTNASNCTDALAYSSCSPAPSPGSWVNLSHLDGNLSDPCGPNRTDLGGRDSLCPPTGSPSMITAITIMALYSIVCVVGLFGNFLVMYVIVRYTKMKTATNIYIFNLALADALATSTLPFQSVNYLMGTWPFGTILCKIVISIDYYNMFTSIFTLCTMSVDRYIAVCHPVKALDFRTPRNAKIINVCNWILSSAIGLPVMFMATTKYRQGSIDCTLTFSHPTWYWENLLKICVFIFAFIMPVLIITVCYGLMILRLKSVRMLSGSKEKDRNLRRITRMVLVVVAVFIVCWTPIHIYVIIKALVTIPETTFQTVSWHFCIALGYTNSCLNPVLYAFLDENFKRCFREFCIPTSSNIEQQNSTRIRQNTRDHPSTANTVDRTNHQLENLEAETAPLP
Description: PDSP Primary Binding target: OPRM1 - Compounds are tested at 10 uM concentration, plate are incubated at room temperature in the dark for 90 minutes. Reaction are stopped by vacuum filtration onto 0.3% polyethyleneimine soaked filter mats using Filtermate harvester. Scintilation cocktail is then melted onto microwave-dried filters on a hot plate and the radio activity is counted in Microbia counter.

[9] = biological target: 5-hydroxytryptamine receptor 6 (Homo sapiens) (UniProt P50406)
Chain of 5-hydroxytryptamine receptor 6 (Homo sapiens) (P50406 whole entry): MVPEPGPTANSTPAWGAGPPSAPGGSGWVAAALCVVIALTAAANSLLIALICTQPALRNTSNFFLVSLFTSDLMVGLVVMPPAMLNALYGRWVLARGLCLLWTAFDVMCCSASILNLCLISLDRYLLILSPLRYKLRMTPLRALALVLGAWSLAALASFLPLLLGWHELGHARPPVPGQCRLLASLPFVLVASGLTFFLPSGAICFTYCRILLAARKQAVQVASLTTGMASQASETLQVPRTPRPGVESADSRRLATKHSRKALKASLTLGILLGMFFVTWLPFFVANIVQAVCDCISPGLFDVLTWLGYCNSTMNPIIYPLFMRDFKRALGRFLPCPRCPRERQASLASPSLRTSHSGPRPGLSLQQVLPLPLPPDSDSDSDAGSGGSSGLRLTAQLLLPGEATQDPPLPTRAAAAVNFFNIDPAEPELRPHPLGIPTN
Description: PDSP Primary Binding target: HTR6 - Compounds are tested at 10 uM concentration, plate are incubated at room temperature in the dark for 90 minutes. Reaction are stopped by vacuum filtration onto 0.3% polyethyleneimine soaked filter mats using Filtermate harvester. Scintilation cocktail is then melted onto microwave-dried filters on a hot plate and the radio activity is counted in Microbia counter.

[10] = biological target: 5-hydroxytryptamine receptor 2A (Homo sapiens) (UniProt P28223)
Chain of 5-hydroxytryptamine receptor 2A (Homo sapiens) (P28223 whole entry): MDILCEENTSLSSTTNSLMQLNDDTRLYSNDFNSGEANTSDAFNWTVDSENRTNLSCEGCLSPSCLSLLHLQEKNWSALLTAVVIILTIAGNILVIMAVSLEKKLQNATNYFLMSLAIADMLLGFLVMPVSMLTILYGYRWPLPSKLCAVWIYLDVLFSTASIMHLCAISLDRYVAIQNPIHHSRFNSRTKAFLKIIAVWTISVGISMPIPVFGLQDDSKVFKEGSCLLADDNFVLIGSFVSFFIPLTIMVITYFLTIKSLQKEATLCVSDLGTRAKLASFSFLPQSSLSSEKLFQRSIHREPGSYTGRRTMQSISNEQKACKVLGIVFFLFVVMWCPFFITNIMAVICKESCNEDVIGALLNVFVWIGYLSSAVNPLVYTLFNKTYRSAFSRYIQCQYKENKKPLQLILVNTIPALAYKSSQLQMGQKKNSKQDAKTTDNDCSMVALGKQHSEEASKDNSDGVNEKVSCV
Description: PDSP Primary Binding target: HTR2A - Compounds are tested at 10 uM concentration, plate are incubated at room temperature in the dark for 90 minutes. Reaction are stopped by vacuum filtration onto 0.3% polyethyleneimine soaked filter mats using Filtermate harvester. Scintilation cocktail is then melted onto microwave-dried filters on a hot plate and the radio activity is counted in Microbia counter.

[11] = biological target: Beta-1 adrenergic receptor (Homo sapiens) (UniProt P08588)
Chain of Beta-1 adrenergic receptor (Homo sapiens) (P08588 whole entry, looked up): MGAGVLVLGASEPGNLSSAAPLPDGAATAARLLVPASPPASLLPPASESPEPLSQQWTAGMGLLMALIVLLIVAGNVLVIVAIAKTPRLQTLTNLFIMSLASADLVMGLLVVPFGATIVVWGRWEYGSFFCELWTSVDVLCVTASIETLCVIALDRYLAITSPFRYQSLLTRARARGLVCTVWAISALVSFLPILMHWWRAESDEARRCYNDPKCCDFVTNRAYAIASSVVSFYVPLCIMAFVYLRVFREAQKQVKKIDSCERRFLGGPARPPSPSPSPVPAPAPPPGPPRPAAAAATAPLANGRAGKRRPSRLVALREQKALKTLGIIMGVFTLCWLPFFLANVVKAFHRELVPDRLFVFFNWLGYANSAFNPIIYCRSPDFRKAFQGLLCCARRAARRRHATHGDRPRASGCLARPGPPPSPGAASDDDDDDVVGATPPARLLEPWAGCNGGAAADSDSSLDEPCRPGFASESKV
Description: PDSP Primary Binding target: ADRB1 - Compounds are tested at 10 uM concentration, plate are incubated at room temperature in the dark for 90 minutes. Reaction are stopped by vacuum filtration onto 0.3% polyethyleneimine soaked filter mats using Filtermate harvester. Scintilation cocktail is then melted onto microwave-dried filters on a hot plate and the radio activity is counted in Microbia counter.

[12] = biological target: T3, Muscarinic acetylcholine receptor M5 (Homo sapiens) (UniProt P08912)
T3 sequence (whole entry): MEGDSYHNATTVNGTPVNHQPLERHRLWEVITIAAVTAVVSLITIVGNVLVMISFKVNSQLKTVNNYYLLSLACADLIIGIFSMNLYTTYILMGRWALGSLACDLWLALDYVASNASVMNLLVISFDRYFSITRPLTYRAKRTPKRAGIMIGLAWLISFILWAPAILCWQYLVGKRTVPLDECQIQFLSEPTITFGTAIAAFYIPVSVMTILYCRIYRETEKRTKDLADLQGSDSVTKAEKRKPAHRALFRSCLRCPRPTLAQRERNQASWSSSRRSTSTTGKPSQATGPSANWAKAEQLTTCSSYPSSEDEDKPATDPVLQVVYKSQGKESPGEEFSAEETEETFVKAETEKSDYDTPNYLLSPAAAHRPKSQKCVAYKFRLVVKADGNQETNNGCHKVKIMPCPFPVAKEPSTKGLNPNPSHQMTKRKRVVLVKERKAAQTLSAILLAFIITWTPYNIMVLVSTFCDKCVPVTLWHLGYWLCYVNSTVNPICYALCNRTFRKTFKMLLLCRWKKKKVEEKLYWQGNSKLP
Description: PDSP Primary Binding target: CHRM5 - Compounds are tested at 10 uM concentration, plate are incubated at room temperature in the dark for 90 minutes. Reaction are stopped by vacuum filtration onto 0.3% polyethyleneimine soaked filter mats using Filtermate harvester. Scintilation cocktail is then melted onto microwave-dried filters on a hot plate and the radio activity is counted in Microbia counter.

[13] = biological target: D(3) dopamine receptor (Homo sapiens) (UniProt P35462)
Chain of D(3) dopamine receptor (Homo sapiens) (P35462 whole entry): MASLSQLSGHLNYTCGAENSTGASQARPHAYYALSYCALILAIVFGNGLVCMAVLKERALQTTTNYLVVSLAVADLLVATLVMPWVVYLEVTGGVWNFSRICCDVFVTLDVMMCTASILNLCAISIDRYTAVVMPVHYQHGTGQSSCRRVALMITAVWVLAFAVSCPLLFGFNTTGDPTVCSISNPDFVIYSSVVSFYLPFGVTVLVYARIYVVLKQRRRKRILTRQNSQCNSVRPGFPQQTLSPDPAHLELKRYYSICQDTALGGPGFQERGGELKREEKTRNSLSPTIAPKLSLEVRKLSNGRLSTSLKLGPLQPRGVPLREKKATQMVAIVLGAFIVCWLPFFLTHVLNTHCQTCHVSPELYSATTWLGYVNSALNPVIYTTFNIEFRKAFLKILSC
Description: PDSP Primary Binding target: DRD3 - Compounds are tested at 10 uM concentration, plate are incubated at room temperature in the dark for 90 minutes. Reaction are stopped by vacuum filtration onto 0.3% polyethyleneimine soaked filter mats using Filtermate harvester. Scintilation cocktail is then melted onto microwave-dried filters on a hot plate and the radio activity is counted in Microbia counter.

[14] = biological target: 5-hydroxytryptamine receptor 1E (Homo sapiens) (UniProt P28566)
Chain of 5-hydroxytryptamine receptor 1E (Homo sapiens) (P28566 whole entry): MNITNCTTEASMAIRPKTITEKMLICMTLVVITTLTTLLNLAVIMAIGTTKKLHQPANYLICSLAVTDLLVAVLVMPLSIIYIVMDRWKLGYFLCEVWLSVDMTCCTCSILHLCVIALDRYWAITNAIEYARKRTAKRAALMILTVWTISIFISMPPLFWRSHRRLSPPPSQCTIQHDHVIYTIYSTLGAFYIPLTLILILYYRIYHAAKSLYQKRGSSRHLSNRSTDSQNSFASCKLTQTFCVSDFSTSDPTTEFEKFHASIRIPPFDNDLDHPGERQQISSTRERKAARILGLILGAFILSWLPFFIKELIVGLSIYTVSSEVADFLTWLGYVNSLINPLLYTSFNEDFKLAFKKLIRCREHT
Description: PDSP Primary Binding target: HTR1E - Compounds are tested at 10 uM concentration, plate are incubated at room temperature in the dark for 90 minutes. Reaction are stopped by vacuum filtration onto 0.3% polyethyleneimine soaked filter mats using Filtermate harvester. Scintilation cocktail is then melted onto microwave-dried filters on a hot plate and the radio activity is counted in Microbia counter.

[15] = biological target: T4, Alpha-2A adrenergic receptor (Homo sapiens) (UniProt P08913)
T4 sequence (whole entry): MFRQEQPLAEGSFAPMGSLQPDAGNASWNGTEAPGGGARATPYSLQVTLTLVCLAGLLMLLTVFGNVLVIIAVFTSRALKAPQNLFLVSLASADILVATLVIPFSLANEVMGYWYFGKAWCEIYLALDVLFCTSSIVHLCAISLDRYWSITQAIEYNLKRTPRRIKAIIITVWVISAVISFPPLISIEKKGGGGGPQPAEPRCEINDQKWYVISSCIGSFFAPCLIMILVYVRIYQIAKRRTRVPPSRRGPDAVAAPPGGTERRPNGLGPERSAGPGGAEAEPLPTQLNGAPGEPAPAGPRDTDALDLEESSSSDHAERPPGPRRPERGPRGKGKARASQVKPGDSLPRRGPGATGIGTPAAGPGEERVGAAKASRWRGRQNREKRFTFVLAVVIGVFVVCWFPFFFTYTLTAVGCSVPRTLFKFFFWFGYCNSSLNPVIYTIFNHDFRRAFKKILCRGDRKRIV
Description: PDSP Primary Binding target: ADRA2A - Compounds are tested at 10 uM concentration, plate are incubated at room temperature in the dark for 90 minutes. Reaction are stopped by vacuum filtration onto 0.3% polyethyleneimine soaked filter mats using Filtermate harvester. Scintilation cocktail is then melted onto microwave-dried filters on a hot plate and the radio activity is counted in Microbia counter.

[16] = biological target: 5-hydroxytryptamine receptor 1D (Homo sapiens) (UniProt P28221)
Chain of 5-hydroxytryptamine receptor 1D (Homo sapiens) (P28221 whole entry): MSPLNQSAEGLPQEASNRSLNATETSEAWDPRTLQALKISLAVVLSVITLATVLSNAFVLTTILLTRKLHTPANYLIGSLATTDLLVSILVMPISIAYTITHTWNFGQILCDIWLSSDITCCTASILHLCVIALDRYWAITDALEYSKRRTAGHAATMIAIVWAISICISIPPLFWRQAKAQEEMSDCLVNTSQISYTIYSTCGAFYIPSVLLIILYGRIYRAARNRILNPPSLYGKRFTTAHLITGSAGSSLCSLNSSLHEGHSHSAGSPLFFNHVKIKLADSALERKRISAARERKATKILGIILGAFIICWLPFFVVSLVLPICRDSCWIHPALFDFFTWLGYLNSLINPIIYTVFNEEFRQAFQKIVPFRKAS
Description: PDSP Primary Binding target: HTR1D - Compounds are tested at 10 uM concentration, plate are incubated at room temperature in the dark for 90 minutes. Reaction are stopped by vacuum filtration onto 0.3% polyethyleneimine soaked filter mats using Filtermate harvester. Scintilation cocktail is then melted onto microwave-dried filters on a hot plate and the radio activity is counted in Microbia counter.

Compound | inhibition [1] [%] | inhibition [2] [%] | inhibition [3] [%] | inhibition [4] [%] | inhibition [5] [%] | inhibition [6] [%] | inhibition [7] [%] | inhibition [8] [%] | inhibition [9] [%] | inhibition [10] [%] | inhibition [11] [%] | inhibition [12] [%] | inhibition [13] [%] | inhibition [14] [%] | inhibition [15] [%] | inhibition [16] [%]
C/C(=N\NC(=O)[C@@H]1C(=O)NC[C@H]1c1ccccc1)c1cccc(Br)c1 | -4.26 | -2.57 | 14.3 | -1.51 | 3.81 | -9.99 | 4.05 | 50.1 | 7.94 | 62.6 | -3.09 | – | – | – | – | –
CC(C)(N)C(=O)N[C@H](COCc1ccccc1)C(=O)N1CCC2(CC1)CN(S(C)(=O)=O)c1ccccc12 | 17.7 | -3.52 | 3.09 | – | 15.2 | – | 21.1 | 12.8 | 5.9 | 6.83 | 30.4 | 5.22 | 25.7 | 14.1 | 10.4 | 30.2
C[C@@H](NCCc1ccc(O)cc1)[C@@H](O)c1ccc(O)cc1 (relative stereo) | – | 36.5 | 34.1 | 24.4 | 56.6 | -9.44 | 58.1 | 51.1 | – | 5.36 | 13.4 | -3.49 | 34.6 | -0.11 | -0.38 | –
C[C@H](Cc1cc2c(c(C(N)=O)c1)N(CCCO)CC2)NCCOc1ccccc1OCC(F)(F)F | 1.73 | 99 | 71.7 | 20.8 | 11 | -5.84 | 17.6 | 38.8 | – | 36.2 | 31.1 | – | 94.1 | -4.65 | 84.6 | 90.2
Cc1c(OCc2cccc(-c3ccc(C(=O)O)cc3)c2)cc2c(c1C)C(=O)C(C1CCCC1)C2 (configuration not stated) | -4.07 | -5.2 | – | -9.01 | 76.5 | -5.51 | -3.24 | – | -3.02 | 6.01 | -9.82 | – | 33.5 | 6.04 | – | 0.61
CCCCN(CC)c1nc(C)nc2c1c(C)cn2-c1c(C)cc(C)cc1C | -1.19 | -7.68 | 16.9 | – | 41.7 | 19.2 | 78.3 | 20.1 | – | 9.7 | 37.8 | – | 18.6 | 18.4 | 4.06 | -0.49
CCCCCNC(=O)NS(=O)(=O)c1cc([N+](=O)[O-])ccc1NC1CCCCC1 | -7.62 | -4.07 | -9.68 | -6.06 | 39.7 | -2.52 | 3.25 | 26.7 | 12.8 | – | 18.5 | – | 52.2 | 16.8 | – | 12.4
COc1ccc(S(=O)(=O)N2c3ccc(Cl)cc3[C@](O)(c3ccccc3Cl)[C@@H]2C(=O)N2CCC[C@H]2C(N)=O)cc1OC | -3.87 | 6.53 | 0.08 | – | 31.7 | – | – | 38.8 | -1.14 | -2.13 | 28.5 | 7.17 | 40.4 | – | 12.7 | 6.02
CC[C@@H]1CN2C(=O)N(C)c3nc(-c4ccccc4)[nH]c3C2=N1 | – | 65.2 | -1.79 | 1.36 | 19.4 | – | 4.68 | -6.84 | 10.3 | 53.6 | 21.2 | – | 27.9 | 23.8 | -7.63 | –
Cc1csc2c(N[C@@H](C)CN3CCN(S(=O)(=O)c4ccc(Cl)c(Cl)c4)CC3)ncnc12 | – | 1.66 | 32.3 | 6.35 | 60.6 | -2.84 | 73.2 | 14.7 | 12.8 | 31 | 26.2 | -7.08 | 67.4 | -3.07 | -8.93 | –
c1ccc(N2CCN(Cc3nc4ccccc4[nH]3)CC2)nc1 | -2.37 | – | 16.4 | 22.3 | 17.4 | – | 1.4 | 4.96 | -0.41 | 6.02 | 13.5 | -1.59 | 33.1 | 6.29 | – | –
CC(C)C[C@H](NC(=O)N1CCCCCC1)C(=O)N[C@H](Cc1cn(C)c2ccccc12)C(=O)N[C@H](Cc1ccccn1)C(=O)O | -9.08 | -6.68 | 16 | 0.87 | -0.31 | – | 9.3 | 16.7 | – | -0.06 | -0.82 | – | 22.6 | – | -6.57 | –
CSc1ccc(C(=O)N[C@@H]2CCCC[C@@H]2NC(=O)CNC(=O)c2cc(C(F)(F)F)ccc2NC(=O)NC(C)C)cc1 | -5.92 | 6.71 | 27.9 | 28.4 | 1.5 | -8.17 | 18.9 | 28 | – | 9.73 | -9.46 | – | 86.6 | -4.02 | -2.26 | –
COc1ccc(/C=C/CCCCOc2ccc(C(=O)c3cccc(C(=O)O)c3)cc2CCC(=O)O)cc1 | -4.61 | – | -2.42 | – | 30.7 | -0.17 | 2.85 | 22.4 | 29.1 | 33.6 | 49.6 | 3.16 | 56.1 | 8.42 | – | 31.8
